# Reference: PubChem BioAssay AID194 (DTP/NCI, 2004)
# Inconclusive results are not listed.
# System: BDF1 mice, B16 melanoma s.c., survival/tumor T/C
# Assay: NCI In Vivo Anticancer Drug Screen. Data for tumor model B16 Melanoma (subcutaneous) in B6D2F1 (BDF1) mice
# Protocol: The antitumor activity of compounds was measured in mice bearing transplantable tumors. Survival or tumor size were measured and the results are expressed as the measurement made in the treated group (T) divided by the measurement made in the vehicle treated control group (C). The tumor model used in this assay is B16 Melanoma (subcutaneous) in B6D2F1 (BDF1) mice
# [1] = endpoint: median survival time, dose: 0.5 mg/kg/injection, schedule: Q01DX009 (ip), vehicle: saline with Tween-80, higher = longer survival
# [2] = endpoint: median survival time, dose: 1.0 mg/kg/injection, schedule: Q01DX009 (ip), vehicle: saline with Tween-80, higher = longer survival
structure (smiles),measurement,setting,value
CN(C)/N=N/c1nc[nH]c1C(N)=O,T/C,"endpoint: median survival time, dose: 12.5 mg/kg/injection, schedule: Q01DX009 (ip), vehicle: Klucel (hydroxypropylcellulose) (HPC), higher = longer survival",101 % of control
same,T/C,"endpoint: median survival time, dose: 25.0 mg/kg/injection, schedule: Q01DX009 (ip), vehicle: Klucel (hydroxypropylcellulose) (HPC), higher = longer survival",89 % of control
same,T/C,"endpoint: median survival time, dose: 37.5 mg/kg/injection, schedule: Q01DX009 (ip), vehicle: saline with Tween-80, higher = longer survival",175 % of control
same,T/C,"endpoint: median survival time, dose: 37.5 mg/kg/injection, schedule: Q01DX009 (ip), vehicle: saline, higher = longer survival",110 % of control
same,T/C,"endpoint: median survival time, dose: 50.0 mg/kg/injection, schedule: Q01DX009 (ip), vehicle: Klucel (hydroxypropylcellulose) (HPC), higher = longer survival",119 % of control
same,T/C,"endpoint: median survival time, dose: 75.0 mg/kg/injection, schedule: Q01DX009 (ip), vehicle: Klucel (hydroxypropylcellulose) (HPC), higher = longer survival",160 % of control
same,T/C,"endpoint: median survival time, dose: 75.0 mg/kg/injection, schedule: Q01DX009 (ip), vehicle: saline with Tween-80, higher = longer survival",156 % of control
same,T/C,"endpoint: median survival time, dose: 75.0 mg/kg/injection, schedule: Q01DX009 (ip), vehicle: saline, higher = longer survival",113 % of control
same,T/C,"endpoint: median survival time, dose: 100.0 mg/kg/injection, schedule: Q01DX009 (ip), vehicle: Klucel (hydroxypropylcellulose) (HPC), higher = longer survival",109 % of control
same,T/C,"endpoint: median survival time, dose: 150.0 mg/kg/injection, schedule: Q01DX009 (ip), vehicle: Klucel (hydroxypropylcellulose) (HPC), higher = longer survival",91 % of control
same,T/C,"endpoint: median survival time, dose: 150.0 mg/kg/injection, schedule: Q01DX009 (ip), vehicle: saline with Tween-80, higher = longer survival",154 % of control
same,T/C,"endpoint: median tumor weight (est.), dose: 37.0 mg/kg/injection, schedule: Q01DX009 (ip), vehicle: saline with Tween-80, higher = larger tumour",50 % of control
same,T/C,"endpoint: median tumor weight (est.), dose: 75.0 mg/kg/injection, schedule: Q01DX009 (ip), vehicle: saline with Tween-80, higher = larger tumour",110 % of control
same,T/C,"endpoint: median tumor weight (est.), dose: 150.0 mg/kg/injection, schedule: Q01DX009 (ip), vehicle: Klucel (hydroxypropylcellulose) (HPC), higher = larger tumour",59 % of control
same,T/C,"endpoint: median tumor weight (est.), dose: 150.0 mg/kg/injection, schedule: Q01DX009 (ip), vehicle: saline with Tween-80, higher = larger tumour",42 % of control
same,T/C,"endpoint: median tumor weight (est.), dose: 300.0 mg/kg/injection, schedule: Q01DX009 (ip), vehicle: saline with Tween-80, higher = larger tumour",43 % of control
CCN1C=C/C(=C/c2cc3scc(-c4ccccc4)[n+]3c3ccccc23)c2ccccc21,T/C,"endpoint: median survival time, dose: 0.15 mg/kg/injection, schedule: Q01DX009 (ip), vehicle: Klucel (hydroxypropylcellulose) (HPC), higher = longer survival",107 % of control
CCOc1ccc2nc(S(N)(=O)=O)sc2c1,T/C,"endpoint: median survival time, dose: 3.75 mg/kg/injection, schedule: Q01DX009 (ip), vehicle: saline, higher = longer survival",121 % of control
same,T/C,"endpoint: median survival time, dose: 7.5 mg/kg/injection, schedule: Q01DX009 (ip), vehicle: saline, higher = longer survival",123 % of control
same,T/C,"endpoint: median survival time, dose: 15.0 mg/kg/injection, schedule: Q01DX009 (ip), vehicle: saline, higher = longer survival",121 % of control
same,T/C,"endpoint: median survival time, dose: 30.0 mg/kg/injection, schedule: Q01DX009 (ip), vehicle: saline, higher = longer survival",95 % of control
CCCCCCCC(=O)OCC(=O)[C@]1(O)Cc2c(O)c3c(c(O)c2[C@@H](OC2CC(N)C(O)C(C)O2)C1)C(=O)c1c(OC)cccc1C3=O (stereo partly drawn),T/C,[1],98 % of control
same,T/C,[2],109 % of control
NCCc1nc(-c2nc(C(=O)O)cs2)cs1,T/C,"endpoint: median survival time, dose: 6.25 mg/kg/injection, schedule: Q01DX009 (ip), vehicle: water, higher = longer survival",98 % of control
same,T/C,"endpoint: median survival time, dose: 12.5 mg/kg/injection, schedule: Q01DX009 (ip), vehicle: water, higher = longer survival",95 % of control
same,T/C,"endpoint: median survival time, dose: 25.0 mg/kg/injection, schedule: Q01DX009 (ip), vehicle: water, higher = longer survival",91 % of control
same,T/C,"endpoint: median survival time, dose: 50.0 mg/kg/injection, schedule: Q01DX009 (ip), vehicle: water, higher = longer survival",92 % of control
same,T/C,"endpoint: median survival time, dose: 100.0 mg/kg/injection, schedule: Q01DX009 (ip), vehicle: water, higher = longer survival",95 % of control
C1CN1c1nc(N2CC2)nc(N2CC2)n1,T/C,"endpoint: median survival time, dose: 0.12 mg/kg/injection, schedule: Q01DX009 (ip), vehicle: saline, higher = longer survival",106 % of control
same,T/C,[1],110 % of control
same,T/C,"endpoint: median survival time, dose: 0.5 mg/kg/injection, schedule: Q08DX002 (ip), vehicle: saline with Tween-80, higher = longer survival",104 % of control
same,T/C,[2],93 % of control
same,T/C,"endpoint: median survival time, dose: 2.0 mg/kg/injection, schedule: Q08DX002 (ip), vehicle: saline with Tween-80, higher = longer survival",179 % of control
same,T/C,"endpoint: median survival time, dose: 4.0 mg/kg/injection, schedule: Q08DX002 (ip), vehicle: saline with Tween-80, higher = longer survival",87 % of control
same,T/C,"endpoint: median tumor weight (est.), dose: 0.12 mg/kg/injection, schedule: Q01DX009 (ip), vehicle: saline with Tween-80, higher = larger tumour",154 % of control
same,T/C,"endpoint: median tumor weight (est.), dose: 0.25 mg/kg/injection, schedule: Q01DX009 (ip), vehicle: saline with Tween-80, higher = larger tumour",95 % of control
same,T/C,"endpoint: median tumor weight (est.), dose: 0.5 mg/kg/injection, schedule: Q01DX009 (ip), vehicle: saline with Tween-80, higher = larger tumour",83 % of control
same,T/C,"endpoint: median tumor weight (est.), dose: 0.5 mg/kg/injection, schedule: Q08DX002 (ip), vehicle: saline with Tween-80, higher = larger tumour",268 % of control
same,T/C,"endpoint: median tumor weight (est.), dose: 1.0 mg/kg/injection, schedule: Q01DX009 (ip), vehicle: saline, higher = larger tumour",34 % of control
same,T/C,"endpoint: median tumor weight (est.), dose: 1.0 mg/kg/injection, schedule: Q08DX002 (ip), vehicle: saline with Tween-80, higher = larger tumour",104 % of control
same,T/C,"endpoint: median tumor weight (est.), dose: 2.0 mg/kg/injection, schedule: Q08DX002 (ip), vehicle: saline with Tween-80, higher = larger tumour",81 % of control
same,T/C,"endpoint: median tumor weight (est.), dose: 4.0 mg/kg/injection, schedule: Q08DX002 (ip), vehicle: saline with Tween-80, higher = larger tumour",19 % of control
same,T/C,"endpoint: median tumor weight (est.), dose: 4.0 mg/kg/injection, schedule: Q08DX002 (ip), vehicle: saline, higher = larger tumour",86 % of control
